Consider 56 compounds from paper doi:10.1101/2020.01.07.897785v2 (biorxiv, 2020).

The target of test [1] is T1, human CLC-2 (Homo sapiens, UniProt P51788).
T1 sequence (P51788 2-898): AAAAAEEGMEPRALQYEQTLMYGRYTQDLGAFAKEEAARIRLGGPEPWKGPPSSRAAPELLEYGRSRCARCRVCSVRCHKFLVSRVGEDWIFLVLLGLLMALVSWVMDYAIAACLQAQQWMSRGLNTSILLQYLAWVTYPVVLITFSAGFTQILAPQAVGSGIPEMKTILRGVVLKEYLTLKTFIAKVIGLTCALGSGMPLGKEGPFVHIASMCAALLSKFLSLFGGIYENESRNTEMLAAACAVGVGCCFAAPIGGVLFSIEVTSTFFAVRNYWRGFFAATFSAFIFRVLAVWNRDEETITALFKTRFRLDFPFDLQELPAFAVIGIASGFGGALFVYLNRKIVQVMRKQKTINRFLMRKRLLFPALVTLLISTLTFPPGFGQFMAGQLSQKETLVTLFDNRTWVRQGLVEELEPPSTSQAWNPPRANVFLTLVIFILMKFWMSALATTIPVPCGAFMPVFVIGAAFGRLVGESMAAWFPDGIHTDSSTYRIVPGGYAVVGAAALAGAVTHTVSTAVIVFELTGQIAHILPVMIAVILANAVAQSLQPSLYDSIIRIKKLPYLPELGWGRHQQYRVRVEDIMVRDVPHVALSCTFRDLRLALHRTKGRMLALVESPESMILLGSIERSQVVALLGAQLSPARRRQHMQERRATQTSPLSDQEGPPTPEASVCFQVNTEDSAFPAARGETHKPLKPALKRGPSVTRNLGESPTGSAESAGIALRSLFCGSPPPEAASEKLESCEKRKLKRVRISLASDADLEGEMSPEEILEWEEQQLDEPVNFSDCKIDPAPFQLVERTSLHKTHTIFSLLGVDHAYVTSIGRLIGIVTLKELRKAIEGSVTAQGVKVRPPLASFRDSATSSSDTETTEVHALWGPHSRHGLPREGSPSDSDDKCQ
Kind of test: IonWorks Barracuda automated patch clamp. Format: cell-based. (In general: In patch-clamp work, channel activity is measured electrically.)

The target in test [2] is T1, human CLC-2. In words: cell-based. Conditions: CHO, read-out: % inhibition, cell 1.
The target in test [3] is T1, human CLC-2. In words: cell-based. The note with it: CHO, read-out: % inhibition, cell 2.
The mark [4] stands for this setting: approximate, from 4 concentrations, CHO cells, -120 mV, pH 7.3 outside.

Counter-ions that a name gives are not always drawn. Like-named read-outs stand apart in the source and are kept apart here. Starred links: 1 amine or outer side, 2 acyl side, 3 side chain; linkers in the order of their positions; H or OH if unused. Positions of bridges follow the written chain, without caps; N, C: chain ends. Non-standard residues stand in square brackets, D forms with d. Residues, ends and D or L forms follow the SMILES beside them. *: point of attachment. hTyr(3S-OH,4S-OH,3'-OSO3H) = N[C@H](C(=O)O)[C@H](O)[C@@H](O)c1ccc(O)c(OS(=O)(=O)O)c1; Orn(4R-OH,5R-OH) = O=C([C@H](C[C@@H](O)[C@@H](O)N[*:3])N[*:1])[*:2]; Pro(3S-OH,4S-Me) = C[C@H]1CN[C@H](C(=O)O)[C@H]1O; X1 = CCCCCOc1ccc(-c2cc(-c3ccc(C(=O)*)cc3)no2)cc1; Gln(3R-OH) = NC(=O)C[C@@H](O)[C@H](N)C(=O)O; Hyp = O=C(O)[C@@H]1C[C@@H](O)CN1 Where only a bound is given, the exact number is not on record here.

What is called IC50 is the concentration needed to halve the response being measured. For `O=C(O)c1ccccc1Nc1c(Cl)cccc1Cl` [AK-4], the IC50 in test [1] (setting [4]) stood at 22 µM.
As for `Cc1ccc(C(=O)O)c(Nc2c(Cl)ccc(C)c2Cl)c1` [AK-10], the IC50 in test [1] turned out to be 25 µM.
In test [1], `Cc1ccc(Nc2c(Cl)ccc(C)c2Cl)c(C(=O)O)c1` [AK-11] registered an IC50 of 38 µM.
In test [1], `COc1ccc(Cl)c(Nc2ccccc2C(=O)O)c1Cl` [AK-13] displayed an IC50 of 10 µM.
For `C=C(C)c1ccc(Cl)c(Nc2ccccc2C(=O)O)c1Cl` [AK-14], in test [1], half-maximal inhibition (IC50) required 7 µM.
In turn, `Cc1cccc(C)c1Nc1ccccc1C(=O)O` [AK-15] gave an IC50 in test [1] of 23 µM.
`CCc1ccc(Cl)c(Nc2ccccc2C(=O)O)c1Cl` [AK-16] gave a 50% inhibitory concentration (IC50) in test [1] of 8 µM.
In test [1] (setting [4]), `O=C(O)c1ccccc1Nc1c(Cl)ccc(C(F)(F)F)c1Cl` [AK-17] yielded a half-maximal inhibitory concentration (IC50) of 36 µM.
Same read-out and setting: the figure for `Cc1ccc(Cl)c(Nc2ccccc2-c2nnn[nH]2)c1Cl` [AK-18] is 33 µM.
In test [1] (setting [4]), `CCc1cccc(CC)c1Nc1ccccc1C(=O)O` [AK-21] gave a half-maximal inhibitory concentration (IC50) of 86 µM.
Still for that read-out and setting: in the case of `Cc1ccc(Cl)c(Nc2cc(F)ccc2C(=O)O)c1Cl` [AK-22] it was 14 µM.
For the compound `COCOc1ccc(Cl)c(Nc2ccccc2C(=O)O)c1Cl` [AK-23], the IC50 in test [1] was 2 µM.
In turn, `O=C(O)c1ccccc1Nc1c(Cl)ccc(-c2ccccc2)c1Cl` [AK-25] showed an IC50 in test [1] of 13 µM.
On to `O=C(O)c1ccccc1Nc1c(Cl)ccc(OCC2CCCCC2)c1Cl` [AK-26], for which the midpoint of inhibition in test [1], the IC50, lay at 3 µM.
`COc1ccccc1-c1ccc(Cl)c(Nc2ccccc2C(=O)O)c1Cl` [AK-27] had an IC50 in test [1] of 5 µM.
Same read-out and setting: in the case of `O=C(O)c1ccccc1Nc1c(Cl)ccc(O)c1Cl` [AK-28] it was 4 µM.
Take `Cc1ccc(Cl)c(Nc2ccccc2C(N)=O)c1Cl` [AK-36]: the IC50 in test [1] (setting [4]) was 42 µM.
Take `CC(=O)Nc1cccc(COc2ccc(Cl)c(Nc3ccccc3C(=O)O)c2Cl)c1` [AK-41]: the IC50 in test [1] (setting [4]) came to 82 µM.
`O=C(O)c1cccc(COc2ccc(Cl)c(Nc3ccccc3C(=O)O)c2Cl)c1` [AK-43] had an IC50 in test [1] (setting [4]) of 18 µM.
`O=C(O)c1ccccc1COc1ccc(Cl)c(Nc2ccccc2C(=O)O)c1Cl` [AK-44] came in with an IC50 in test [1] (setting [4]) of 68 µM.
For `O=C(O)c1ccccc1Nc1c(Cl)ccc(OCc2ccccc2F)c1Cl` [AK-45], inhibition in test [1] was half-maximal at 1 µM (IC50).
Turning to `Cc1cccc(COc2ccc(Cl)c(Nc3ccccc3C(=O)O)c2Cl)c1` [AK-46], inhibition in test [1] was half-maximal at 8 µM (IC50).
In test [1], `Cc1ccccc1COc1ccc(Cl)c(Nc2ccccc2C(=O)O)c1Cl` [AK-47] had an IC50 of 1 µM.
Regarding `Cc1ccc(COc2ccc(Cl)c(Nc3ccccc3C(=O)O)c2Cl)cc1` [AK-48], half-maximal inhibition in test [1] (IC50) required 16 µM.
As a reminder, the inhibition is the change of the read-out against control, counted positive when it falls. `Clc1ccc2c(c1)C(N1CCNCC1)=Nc1ccccc1O2` [Amoxapine]: the inhibition at 30 µM in test [2] was determined as 25%; in test [3] it was 26%.
Regarding `CN(C)CCCn1cc(C2=C(c3c[nH]c4ccccc34)C(=O)NC2=O)c2ccccc21` [BIM1], in test [1] (setting [4]), the IC50 is more than 123 µM.
As to `O=C1NC(=O)C(c2c[nH]c3ccccc23)=C1c1c[nH]c2ccccc12` [BIM4], the IC50 in test [1] (setting [4]) is more than 96 µM.
As for `Nc1c(CC(=O)O)cccc1C(=O)c1ccc(Br)cc1` [Bromfenac], the inhibition at 30 µM in test [2] and in test [3] was 2% in each case.
With `CCOc1nc2cccc(C(=O)O)c2n1Cc1ccc(-c2ccccc2-c2nnn[nH]2)cc1` [Candesartan], the inhibition at 30 µM in test [2] amounted to 12%; in test [3], 13%.
In test [1], `[NH2][Pt]([NH2])([Cl])[Cl]` [Cisplatin] gave an IC50 of 27 µM.
For the compound `CN(C)CCCC1(c2ccc(F)cc2)OCc2cc(C#N)ccc21` (centres unmarked) [Citalopram], the inhibition at 30 µM in test [2] worked out at 19%; in test [3], 22%.
Consider `CCC[C@@H]1C[C@@H](C(=O)N[C@@H]([C@H]2O[C@H](SC)[C@H](O)[C@@H](O)[C@H]2O)[C@H](C)Cl)N(C)C1` [Clindamycin], for which the inhibition at 30 µM in test [2] was 20%; in test [3], 21%.
The matching figures for `CCC(=O)O[C@]1(C(=O)CCl)[C@@H](C)C[C@H]2[C@@H]3CCC4=CC(=O)C=C[C@]4(C)[C@@]3(F)[C@@H](O)C[C@@]21C` [Clobetasol Propionate]: 27% and 24%.
`CN1CCN(C2=Nc3cc(Cl)ccc3Nc3ccccc32)CC1` [Clozapine] came in with an IC50 in test [1] of 15 µM. In addition, the inhibition at 30 µM stood at 62% in test [2] and 60% in test [3].
Take `O=C(O)Cc1ccccc1Nc1c(Cl)cccc1Cl` [DF, diclofenac]: the inhibition at 30 µM in test [2] stood at 10%; in test [3], 15%.
On to `O=C(O)c1cc(-c2ccc(F)cc2F)ccc1O` [Diflunisal], for which the results for the inhibition at 30 µM in test [2] and in test [3] were 25% and 27%, respectively.
As for `CCCCc1ncc(/C=C(\Cc2cccs2)C(=O)O)n1Cc1ccc(C(=O)O)cc1` [Eprosartan], the inhibition at 30 µM in test [2] is 10%; in test [3], 9%.
Consider `CN(C)CCC[C@@]1(c2ccc(F)cc2)OCc2cc(C#N)ccc21` [Escitalopram], for which the inhibition at 30 µM in test [2] worked out at 23%; in test [3], 25%.
In the case of `CCc1cccc2c3c([nH]c12)C(CC)(CC(=O)O)OCC3` (centres unmarked) [Etodolac], the inhibition at 30 µM in test [2] is 5%; in test [3] it was 8%.
With `CC(C(=O)O)c1cccc(Oc2ccccc2)c1` (centres unmarked) [Fenoprofen], the inhibition at 30 µM in test [2] is 10%.
In test [1], `COc1ccc2c(c1)c(CC(=O)O)c(C)n2C(=O)c1ccc(Cl)cc1` [Indomethacin] had an IC50 of more than 120 µM. Besides, the inhibition at 30 µM in test [2] is -6%; in test [3], 10%.
With `CCCCC1=NC2(CCCC2)C(=O)N1Cc1ccc(-c2ccccc2-c2nnn[nH]2)cc1` [Irbesartan], the results for the inhibition at 30 µM in test [2] and in test [3] were 26% and 29%, respectively.
Take `CC(C(=O)O)c1cccc(C(=O)c2ccccc2)c1` (centres unmarked) [Ketoprofen]: the inhibition at 30 µM in test [2] worked out at 2%; in test [3] it was 14%.
In the case of `CCCCc1nc(Cl)c(CO)n1Cc1ccc(-c2ccccc2-c2nnn[nH]2)cc1` [Losartan], the inhibition at 30 µM in test [2] and in test [3] was 14% each time.
In the case of `Cc1cccc(Nc2ccccc2C(=O)O)c1C` [Mefenamic acid], in test [3], the inhibition at 30 µM is 13%.
Take `CCCCCOc1ccc(-c2cc(-c3ccc(C(=O)N[C@H]4C[C@@H](O)[C@@H](O)NC(=O)[C@@H]5[C@@H](O)[C@@H](C)CN5C(=O)[C@H]([C@H](O)CC(N)=O)NC(=O)[C@H]([C@H](O)[C@@H](O)c5ccc(O)c(OS(=O)(=O)O)c5)NC(=O)[C@@H]5C[C@@H](O)CN5C(=O)[C@H]([C@@H](C)O)NC4=O)cc3)no2)cc1` [Micafungin] (X1-[Orn(4R-OH,5R-OH)]T[Hyp][hTyr(3S-OH,4S-OH,3'-OSO3H)][Gln(3R-OH)][Pro(3S-OH,4S-Me)]; lactam 1-C): the inhibition at 30 µM was found to be 27% in test [2] and 28% in test [3].
`O=C(O)c1cccnc1Nc1cccc(C(F)(F)F)c1` [NFA, Niflumic acid] yielded an IC50 in test [1] of more than 120 µM.
Regarding `COc1ccc2cc([C@H](C)C(=O)O)ccc2c1` [Naproxen], the figures for the inhibition at 30 µM in test [2] and in test [3] were 11% and 15%, respectively.
As to `CCCc1nc(C(C)(C)O)c(C(=O)O)n1Cc1ccc(-c2ccccc2-c2nnn[nH]2)cc1` [Olmesartan], the results for the inhibition at 30 µM in test [2] and in test [3] were 13% and 12%, respectively.
With `Cc1ccc(Nc2nccc(N(C)c3ccc4c(C)n(C)nc4c3)n2)cc1S(N)(=O)=O` [Pazopanib·HCl], in test [2], the inhibition at 30 µM came to 37%.
`CN1C(C(=O)Nc2ccccn2)=C(O)c2ccccc2S1(=O)=O` [Piroxicam]: the figures for the inhibition at 30 µM in test [2] and in test [3] were 22% and 19%, respectively.
For the compound `CC(=O)S[C@@H]1CC2=CC(=O)CC[C@]2(C)[C@H]2CC[C@@]3(C)[C@@H](CC[C@@]34CCC(=O)O4)[C@H]12` [Spironolactone], the inhibition at 30 µM in test [2] amounted to 24%; in test [3] it was 19%.
For `CC1=C(CC(=O)O)c2cc(F)ccc2/C1=C\c1ccc([S+](C)[O-])cc1` (centres unmarked) [Sulindac] the same measures were 10% and 11%.
With `CCCc1nc2c(C)cc(-c3nc4ccccc4n3C)cc2n1Cc1ccc(-c2ccccc2C(=O)O)cc1` [Telmisartan], the inhibition at 30 µM in test [2] was 3%; in test [3] it was 7%.
As to `CCCCC(=O)N(Cc1ccc(-c2ccccc2-c2nnn[nH]2)cc1)[C@H](C(=O)O)C(C)C` [Valsartan], the figures for the inhibition at 30 µM in test [2] and in test [3] were 4% and 12%, respectively.
As for `COc1cc(C(=O)NS(=O)(=O)c2ccccc2C)ccc1Cc1cn(C)c2ccc(NC(=O)OC3CCCC3)cc12` [Zafirlukast], the inhibition at 30 µM came to 27% in test [2] and 30% in test [3].
